Values joined by “and” are separate entries in the source; they are usually repeats but may differ in a detail not shown here. Identical values can stand only once.
Tests used:
Dirofilaria immitis = assay: D. immitis L3 infection of NSG mice (FR3 Missouri strain or strain not stated), treatment, recovery and count of worms at necropsy; format: in vivo
[1] = test system: Dirofilaria immitis (Merial worms, UC strain); assay: D. immitis L3 infection of NSG mice with Merial worms / UC strain, treatment, recovery and count of worms; format: in vivo
[2] = test system: Strongyloides stercoralis; assay: Strongyloides stercoralis L3 infection of NSG mice with or without MPA, treatment, counts of adult worms, L1 and L3; conditions: 6 weeks post-injection; for Adult S. stercoralis recovery counts (individual mice) / Adult S. stercoralis recovery counts, mean / L1 S. stercoralis recovery counts (individual mice) / L1 S. stercoralis recovery counts, mean / L3 S. stercoralis recovery counts (individual mice) / L3 S. stercoralis recovery counts, mean: 5000 L3 s.c.
Description: NSG mice infected by subcutaneous injection with 5000 S. stercoralis L3 larvae, either with or without MPA. […] Adult worms, L1 larvae, or L3 larvae were counted in the mice at 6 weeks post-injection.

[3] = IVM Control: 3 mg/kg IVM days 1, 15, 30, without MPA
[4] = IVM/MPA: 3 mg/kg IVM days 1, 15, 30, with MPA (hyperinfection)

CC[C@H](C)[C@H]1O[C@]2(CC[C@@H]1C)C[C@@H]1C[C@@H](C/C=C(\C)[C@@H](O[C@H]3C[C@H](OC)[C@@H](O[C@H]4C[C@H](OC)[C@@H](O)[C@H](C)O4)[C@H](C)O3)[C@@H](C)/C=C/C=C3\CO[C@@H]4[C@H](O)C(C)=C[C@@H](C(=O)O1)[C@]34O)O2 [IVM, ivermectin]
% Rec, Mean (Dirofilaria immitis; in vivo): 1% and 4% and 2% | Mean % Rec (Dirofilaria immitis; in vivo): 6% | Mean Survival (Dirofilaria immitis; in vivo): 3 | HW parasite load (normalized percent larva recovery, FIG. 2) (Dirofilaria immitis; in vivo, po, 3 mg/kg): significantly reduced HW parasite load | % Red ([1]; in vivo, 3 mg/kg): 47% | Mean % Rec ([1]; in vivo, 3 mg/kg): 18% | Mean Survival ([1]; in vivo, 3 mg/kg): 9 | Adult S. stercoralis recovery counts (individual mice) [2, 3]: 0 | Adult S. stercoralis recovery counts, mean [2, 3]: 0 | L1 S. stercoralis recovery counts (individual mice) [2, 3]: 0 | L1 S. stercoralis recovery counts, mean [2, 3]: 0 | L3 S. stercoralis recovery counts (individual mice) [2, 3]: 6 and 9 and 26 and 210 and 2 | L3 S. stercoralis recovery counts, mean [2, 3]: 51 | Adult S. stercoralis recovery counts (individual mice) [2, 4]: 0 | Adult S. stercoralis recovery counts, mean [2, 4]: 0 | L1 S. stercoralis recovery counts (individual mice) [2, 4]: 0 | L1 S. stercoralis recovery counts, mean [2, 4]: 0 | L3 S. stercoralis recovery counts (individual mice) [2, 4]: 19 and 24 and 4 and 13 and 25 and 16 and 40 and 38 | L3 S. stercoralis recovery counts, mean [2, 4]: 22 | Circulating L3 ([2]; NSG mice, 5000 S. stercoralis L3 SC, with or without MPA, 3 mg/kg on days 1, 15, and 30): reduced the circulating L3

C[C@H]1OC(=O)[C@H](CC(C)(C)C)N(C)C(=O)[C@@H](Cc2ccc(C3CCOCC3)cc2)OC(=O)[C@H](CC(C)(C)F)N(C)C(=O)[C@@H](C)OC(=O)[C@H](CC(C)(C)C)N(C)C(=O)[C@@H](Cc2ccc(C3CCOCC3)cc2)OC(=O)[C@H](CC(C)(C)F)N(C)C1=O [compound 4838]
% Red (Dirofilaria immitis; 4838 1 mg/kg days 1, 15, 30, 50 Di L3 (FR3 worms) per NSG mouse, Table 17, vs Control): % Red: 50% | % Rec, Mean (Dirofilaria immitis; 4838 1 mg/kg days 1, 15, 30, 50 Di L3 (FR3 worms) per NSG mouse, recovery Days 41 and 42, Table 17, group mean): 14% | % Rec (Dirofilaria immitis; 4838 1 mg/kg days 1, 15, 30, 50 Di L3 (FR3 worms) per NSG mouse, recovery Days 41 and 42, Table 17, individual mice, 1 mg/kg): 10% (2×) and 20% and 16% (2×) and 12% (2×) | % Red (Dirofilaria immitis; 4838 2.5 mg/kg days 1, 15, 30, 50 Di L3 (FR3 worms) per NSG mouse, Table 17, vs Control): % Red: 76% | % Rec, Mean (Dirofilaria immitis; 4838 2.5 mg/kg days 1, 15, 30, 50 Di L3 (FR3 worms) per NSG mouse, recovery Days 41 and 42, Table 17, group mean): 6% | % Rec (Dirofilaria immitis; 4838 2.5 mg/kg days 1, 15, 30, 50 Di L3 (FR3 worms) per NSG mouse, recovery Days 41 and 42, Table 17, individual mice, 2.5 mg/kg): 2% and 12% and 4% (3×) and 10% and 8% | % Red (Dirofilaria immitis; 4838 5 mg/kg days 1, 15, 30, 50 Di L3 (FR3 worms) per NSG mouse, Table 17, vs Control): % Red: 93% | % Rec, Mean (Dirofilaria immitis; 4838 5 mg/kg days 1, 15, 30, 50 Di L3 (FR3 worms) per NSG mouse, recovery Days 41 and 42, Table 17, group mean): 2% | % Rec (Dirofilaria immitis; 4838 5 mg/kg days 1, 15, 30, 50 Di L3 (FR3 worms) per NSG mouse, recovery Days 41 and 42, Table 17, individual mice, 5 mg/kg): 0% (4×) and 4% (3×) | % Red (Dirofilaria immitis; 4838 10 mg/kg Days 1, 15, 30, 50 Di L3 per NSG mouse, Table 14, vs Control): 100% | % Rec, Mean (Dirofilaria immitis; 4838 10 mg/kg Days 1, 15, 30, 50 Di L3 per NSG mouse, recovery Days 41 to 42, Table 14, group mean): 0% | % Rec (Dirofilaria immitis; 4838 10 mg/kg Days 1, 15, 30, 50 Di L3 per NSG mouse, recovery Days 41 to 42, Table 14, individual mice): 0% | % Red (Dirofilaria immitis; 4838 10 mg/kg days 1, 15, 30, 50 Di L3 (FR3 worms) per NSG mouse, Table 17, vs Control): % Red: 99% | % Rec, Mean (Dirofilaria immitis; 4838 10 mg/kg days 1, 15, 30, 50 Di L3 (FR3 worms) per NSG mouse, recovery Days 41 and 42, Table 17, group mean): 0.29% | % Rec (Dirofilaria immitis; 4838 10 mg/kg days 1, 15, 30, 50 Di L3 (FR3 worms) per NSG mouse, recovery Days 41 and 42, Table 17, individual mice, 10 mg/kg): 0% (6×) and 2% | % Red (Dirofilaria immitis; 4838 .5 mg/kg days 1, 15, 30, 50 Di L3 (FR3 worms) per NSG mouse, Table 17, vs Control): % Red: 36% | % Rec, Mean (Dirofilaria immitis; 4838 .5 mg/kg days 1, 15, 30, 50 Di L3 (FR3 worms) per NSG mouse, recovery Days 41 and 42, Table 17, group mean): 18% | % Rec (Dirofilaria immitis; 4838 .5 mg/kg days 1, 15, 30, 50 Di L3 (FR3 worms) per NSG mouse, recovery Days 41 and 42, Table 17, individual mice): 22% and 8% (2×) and 34% and 16% and 12% and 28% | % Red (Dirofilaria immitis; Table 9, NSG mice, 50 Di L3, 1 mg/kg on Days 1, 15, and 30, recovery Days 41 to 43): 24% | Mean % Rec (Dirofilaria immitis; Table 9, group mean, NSG mice, 50 Di L3, 1 mg/kg on Days 1, 15, and 30, recovery Days 41 to 43): 25% | % Rec (Dirofilaria immitis; Table 9, individual mouse, NSG mice, 50 Di L3, 1 mg/kg on Days 1, 15, and 30, recovery Days 41 to 43): 26% and 30% (2×) and 12% and 14% and 32% | % Red (Dirofilaria immitis; Table 11, NSG mice, 50 Di L3, 1 mg/kg on Days 1, 15, and 30, recovery Days 41 to 42): 21% | % Red (Dirofilaria immitis; Table 11, NSG mice, 50 Di L3, 5 mg/kg on Days 1, 15, and 30, recovery Days 41 to 42): 92% | Mean % Rec (Dirofilaria immitis; Table 11, group mean, NSG mice, 50 Di L3, 1 mg/kg on Days 1, 15, and 30, recovery Days 41 to 42): 19% | Mean % Rec (Dirofilaria immitis; Table 11, group mean, NSG mice, 50 Di L3, 5 mg/kg on Days 1, 15, and 30, recovery Days 41 to 42): 2% | % Rec (Dirofilaria immitis; Table 11, individual mouse, NSG mice, 50 Di L3, 1 mg/kg on Days 1, 15, and 30, recovery Days 41 to 42): 20% and 12% and 8% and 30% and 28% and 18% | % Rec (Dirofilaria immitis; Table 11, individual mouse, NSG mice, 50 Di L3, 5 mg/kg on Days 1, 15, and 30, recovery Days 41 to 42): 4% (2×) and 2% (3×) and 0% | Survival, Mean (Dirofilaria immitis; in vivo): 9 | Survival (Dirofilaria immitis; in vivo, 1 mg/kg): 5 and 10 and 8 and 6 | Survival, Mean (Dirofilaria immitis; in vivo, 1 mg/kg): 7 | Survival, Mean (Dirofilaria immitis; in vivo, 2.5 mg/kg): 3 | Survival, Mean (Dirofilaria immitis; in vivo, 5 mg/kg): 1 | Survival, Mean (Dirofilaria immitis; in vivo, 10 mg/kg): 0 | % Rec, Mean ([1]; 4838 1 mg/kg Days 1, 15, 30, 50 Di L3 (UC Strain) per NSG mouse, recovery Days 41 to 43, group mean): 9% | % Rec ([1]; 4838 1 mg/kg Days 1, 15, 30, 50 Di L3 (UC Strain) per NSG mouse, recovery Days 41 to 43, individual mice, 1 mg/kg): 10% and 14% and 8% and 20% and 6% (2×) and 2% | % Red ([1]; 4838 1 mg/kg Days 1, 15, 30, 50 Di L3 (UC Strain) per NSG mouse, vs Control): 75% | % Rec, Mean ([1]; 4838 5 mg/kg Days 1, 15, 30, 50 Di L3 (UC Strain) per NSG mouse, recovery Days 41 to 43, group mean): 2% | % Rec ([1]; 4838 5 mg/kg Days 1, 15, 30, 50 Di L3 (UC Strain) per NSG mouse, recovery Days 41 to 43, individual mice, 5 mg/kg): 2% (4×) and 0% and 4% (2×) | % Red ([1]; 4838 5 mg/kg Days 1, 15, 30, 50 Di L3 (UC Strain) per NSG mouse, vs Control): 94% | % Red ([1]; NSG mice, 50 Di L3 Merial worms, 1 mg/kg on Days 1, 15, and 30, recovery Days 41 to 43): 38% | % Red ([1]; NSG mice, 50 Di L3 UC strain, High Dose 5 mg/kg on Days 1, 15, and 30, recovery Days 41 and 42): 92% | % Red ([1]; NSG mice, 50 Di L3 UC strain, Normal Dose 1 mg/kg on Days 1, 15, and 30, recovery Days 41 and 42): 58% | Mean % Rec ([1]; group mean, NSG mice, 50 Di L3 Merial worms, 1 mg/kg on Days 1, 15, and 30, recovery Days 41 to 43): 21% | Mean % Rec ([1]; group mean, NSG mice, 50 Di L3 UC strain, High Dose 5 mg/kg on Days 1, 15, and 30, recovery Days 41 and 42): 3% | Mean % Rec ([1]; group mean, NSG mice, 50 Di L3 UC strain, Normal Dose 1 mg/kg on Days 1, 15, and 30, recovery Days 41 and 42): 15% | Mean Survival ([1]; in vivo, 1 mg/kg): 10 and 8 | Survival, Mean ([1]; in vivo, 1 mg/kg): 5 | Mean Survival ([1]; in vivo, 5 mg/kg): 1 | Survival, Mean ([1]; in vivo, 5 mg/kg): 1 | % Rec ([1]; individual mouse, NSG mice, 50 Di L3 Merial worms, 1 mg/kg on Days 1, 15, and 30, recovery Days 41 to 43, 1 mg/kg): 20% (3×) and 12% and 24% and 16% (2×) and 36% | % Rec ([1]; individual mouse, NSG mice, 50 Di L3 UC strain, High Dose 5 mg/kg on Days 1, 15, and 30, recovery Days 41 and 42, 5 mg/kg): 4% (4×) and 0% and 2% (2×) | % Rec ([1]; individual mouse, NSG mice, 50 Di L3 UC strain, Normal Dose 1 mg/kg on Days 1, 15, and 30, recovery Days 41 and 42, 1 mg/kg): 14% (3×) and 16% (3×) and 18%

Reference: patent US20200011856A1, “Method for Determining the Effectiveness of Treatment for the Prevention of Heartworm Disease” (priority 2017, published 2020)
